Each structure is given as a SMILES string. Where two headings read alike, the source gives them in different places. Numbered stars: 1 amine (or outer) side, 2 acyl side, 3 side chain; on linkers, the order of the positions; unused ones are H or OH. Square brackets hold non-standard residues; d marks the D form. Peptide text beside a SMILES is read from it. * marks the point of attachment. d(hArg) = N=C(N)NCCCC[C@@H](N)C(=O)O; Hydrocinnamoyl = O=C(CCc1ccccc1)*; dCit = NC(=O)NCCC[C@@H](N)C(=O)O; Suc = O=C(CCC(=O)[*:2])[*:1]; Boc = CC(C)(C)OC(=O)*; Aib = CC(C)(N)C(=O)O Where only a bound is given, the exact number is not on record here.

Here are results for 18 compounds from patent US5721214A, “Inhibitors of factor Xa” (COR Therapeutics, Inc., priority 1995, dated 1998).

One data set deals with T1, thrombin (Homo sapiens, UniProt P00734).
T1 construct: The formation of thrombin is the result of the proteolytic cleavage of its precursor prothrombin
Put plainly: Thrombin amidolytic assay (Chromozym TH). It is filed as biochemical.

For the next data set, the target named is factor Xa (Homo sapiens, UniProt P00742). Put plainly: Factor Xa amidolytic assay (chromogenic substrate S-2765). The format is biochemical.
Chain of factor Xa (P00742 235-488 limits assumed): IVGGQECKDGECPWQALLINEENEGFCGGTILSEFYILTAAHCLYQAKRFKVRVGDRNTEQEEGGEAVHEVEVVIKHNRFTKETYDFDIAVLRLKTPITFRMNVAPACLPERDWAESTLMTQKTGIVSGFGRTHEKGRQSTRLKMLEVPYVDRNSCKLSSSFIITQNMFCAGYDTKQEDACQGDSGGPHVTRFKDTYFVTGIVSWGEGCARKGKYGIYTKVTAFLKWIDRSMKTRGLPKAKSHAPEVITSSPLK
Chain of factor Xa (P00742 41-179 limits assumed): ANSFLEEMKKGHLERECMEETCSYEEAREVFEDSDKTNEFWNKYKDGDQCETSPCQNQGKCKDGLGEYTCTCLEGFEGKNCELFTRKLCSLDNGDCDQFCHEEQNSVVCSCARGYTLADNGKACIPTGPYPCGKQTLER
A short description of data set [1]: Pharmacokinetics/Pharmacodynamics in rabbits after I.V. bolus. The format is in vivo. The conditions noted are these: rabbit.
Data set [2] concerns thrombus growth in abdominal vena cava. The experiment in a line: Rabbit deep vein thrombosis model. The format is in vivo. Conditions: for Hct / PLT / RBC / WBC: mean±SD. An excerpt: Haemost. […] Rabbits were anesthetized with I.M. injections of Ketamine, Xylazine, and Acepromazine cocktail.
A further data set deals with prothrombinase complex (Homo sapiens, UniProt P00742). Put plainly: Prothrombinase inhibition assay, plasma free system. The format is biochemical. Conditions: 5 min preincubation, factor Xa 0.5 nM, factor Va 2 nM, pH 7.5; read-out: Inhibitory Activity (IC50) Prothrombinase.
Chain of prothrombinase complex (P00742 235-488 limits assumed): as the sequence (P00742 235-488 limits assumed) above
Chain of prothrombinase complex (P00742 41-179 limits assumed): as the sequence (P00742 41-179 limits assumed) above
Setting [3] is: 5 min preincubation, room temperature, pH 7.5, read-out: Inhibitory Activity (IC50) Factor Xa.
[4] abbreviates: 5 min preincubation, room temperature, pH 7.5, read-out: Inhibitory Activity (IC50) Thrombin.

For orientation: IC50 means the midpoint of a concentration-inhibition curve. In turn, `N=C(N)NCCC[C@@H](C=O)NC(=O)CNC(=O)[C@@H](CCCNC(=N)N)NC(=O)COc1ccc2ccccc2c1` [2-NaphthoxyAc--D--Arg--Gly--Arg--H, 2-Napthoxyacetyl-D-Arg-Gly-Arg-H] returned a half-inhibitory concentration (IC50) against thrombin greater than 100000 nM.

On to `CC(C)(C)OC(=O)N[C@H](CCCNC(=N)N)C(=O)NC(C)(C)C(=O)N[C@H](C=O)CCCNC(=N)N` [Boc--D--Arg--Aib--Arg--H, Boc-D-Arg-Aib-Arg-H] (Boc-[dR]-[Aib]-Arg-aldehyde), for which the IC50 on factor Xa (setting [3]) was found to be 552 nM.

Regarding `C[C@H](NC(=O)[C@@H](CCCNC(=N)N)NC(=O)OC(C)(C)C)C(=O)N[C@H](C=O)CCCNC(=N)N` [Boc--D--Arg--Ala--Arg--H, Boc-D-Arg-Ala-Arg-H] (Boc-[dR]-Ala-Arg-aldehyde), on factor Xa (setting [3]), the IC50 was determined as 167 nM.

Consider `C[C@@H](NC(=O)[C@@H](CCCNC(=N)N)NC(=O)OC(C)(C)C)C(=O)N[C@H](C=O)CCCNC(=N)N` [Boc--D--Arg--D--Ala--Arg--H, Boc-D-Arg-D-Ala-Arg-H] (Boc-[dR]-[dA]-Arg-aldehyde), for which, at factor Xa (setting [3]), the 50% inhibitory concentration (IC50) is 230 nM.

With `CC(C)(C)OC(=O)N[C@H](CCCN=C(N)N)C(=O)NCC(=O)N[C@H](C=O)CCCN=C(N)N` [Boc--D--Arg--Gly--Arg--H, Boc-D-Arg-Gly-Arg-H] (Boc-[dR]-Gly-Arg-aldehyde), in data set [1] (2.0 mg/kg I.V. bolus), the “changes in hematological parameters as compared to saline controls” value is reported as “no significant changes”. Besides, in data set [1] (I.V.), the “mean clearance value (CL)” value worked out at 1.16 mL/min/kg and the volume of distribution was determined as 0.1183 L/kg. For the same compound, the mean plasma half-life in data set [1] (I.V., n=3) came to 1.18 h. Further, in data set [2] (200 + 1.98 μg/kg + μg/kg/min), the Hct is given as 36.9 ± 3.90%, the PLT was 393 ± 84 10^3 /μL, the RBC was 5.69 ± 0.14 10^6 /μL and the WBC was 4.45 ± 0.97 10^3 /μL. For the same compound, in data set [2] (600 + 5.94 μg/kg + μg/kg/min), the Hct is recorded as 35.3 ± 3.01%, the PLT is given as 442 ± 81 10^3 /μL, the RBC is recorded as 5.74 ± 0.48 10^6 /μL and the WBC is 3.87 ± 0.65 10^3 /μL. For the same compound, in data set [2] (1000 + 9.90 μg/kg + μg/kg/min), the Hct turned out to be 35.5 ± 1.01%, the PLT is given as 375 ± 73 10^3 /μL, the RBC was 5.71 ± 0.28 10^6 /μL and the WBC is listed as 5.09 ± 1.61 10^3 /μL. Also, in data set [2] (1500 + 14.85 μg/kg + μg/kg/min), the Hct turned out to be 36.0 ± 3.31%, the PLT is recorded as 433 ± 22 10^3 /μL, the RBC is reported as 5.80 ± 0.50 10^6 /μL and the WBC is 4.82 ± 1.01 10^3 /μL. The “effects on hematological parameters as compared to saline controls” value in data set [2] (bolus + infusion) is on record as “no significant effects”.

Turning to `CC(C)(C)OC(=O)N[C@H](CCCNC(=N)N)C(=O)NCC(=O)N[C@H](C=O)CCCNC(=N)N` [Boc--D--Arg--Gly--Arg--H, Boc-D-Arg-Gly-Arg-H] (Boc-[dR]-Gly-Arg-aldehyde), on factor Xa (setting [3]), the 50% inhibitory concentration (IC50) is 50 nM. The anticoagulative effect result in data set [1] (2.0 mg/kg I.V. bolus) is reported as “plasma concentration-dependent anticoagulative effect”. Further, the “% Inhibition of Thrombosis” value in data set [2] (200 + 1.98 μg/kg + μg/kg/min) is given as 8.4%; in data set [2] (600 + 5.94 μg/kg + μg/kg/min) it was -6.6%; in data set [2] (1000 + 9.90 μg/kg + μg/kg/min) it was 58.6%; in data set [2] (1500 + 14.85 μg/kg + μg/kg/min), 31.4%. For the same compound, the “antithrombotic efficacy in the rabbit venous thrombosis model” value in data set [2] (bolus + infusion, all doses evaluated) was “demonstrated antithrombotic efficacy at the higher doses evaluated”.

Take `CC(C)(C)OC(=O)N[C@H](CCCNC(=N)N)C(=O)NCCC(=O)N[C@H](C=O)CCCNC(=N)N` [Boc--D--Arg--β-Ala--Arg--H, Boc-D-Arg-β-Ala-Arg-H]: the concentration for half-maximal inhibition (IC50) at thrombin (setting [4]) was greater than 500000 nM.

On to `CC(C)(C)OC(=O)N[C@H](CCCNC(N)=O)C(=O)NCC(=O)N[C@H](C=O)CCCN=C(N)N` [Boc--D--Cit--Gly--Arg--H, Boc-D-Cit-Gly-Arg-H] (Boc-[dCit]-Gly-Arg-aldehyde), for which the concentration for half-maximal inhibition (IC50) on factor Xa is 5000 nM; at prothrombinase complex, 44000 nM.

Consider `CN(C)C(=NCCCC[C@@H](NC(=O)OC(C)(C)C)C(=O)NCC(=O)N[C@H](C=O)CCCNC(=N)N)N(C)C` [Boc--D--Har((CH3)4)--Gly--Arg--H, Boc-D-Har((CH3)4)-Gly-Arg-H], for which, on thrombin (setting [4]), the 50% inhibitory concentration (IC50) was greater than 100000 nM.

As to `CC(C)(C)OC(=O)N[C@H](CCCCNC(=N)N)C(=O)NCC(=O)N[C@H](C=O)CCCNC(=N)N` [Boc--D--Har--Gly--Arg--H, Boc-D-Har-Gly-Arg-H] (Boc-[d(hArg)]-Gly-Arg-aldehyde), the results for the IC50 on factor Xa (setting [3]), on prothrombinase complex and on thrombin (setting [4]) were 100 nM, 173 nM and 405000 nM, respectively.

In the case of `CC(C)(C)OC(=O)N[C@H](CCCCN)C(=O)NCC(=O)N[C@H](C=O)CCCNC(=N)N` [Boc--D--Lys--Gly--Arg--H, Boc-D-Lys-Gly-Arg-H] (Boc-[dK]-Gly-Arg-aldehyde), the half-inhibitory concentration (IC50) on factor Xa (setting [3]) amounted to 10000 nM.

With `CCOC(=O)N[C@H](CCCN=C(N)N)C(=O)NCC(=O)N[C@H](C=O)CCCN=C(N)N` [EtOCO--D--Arg--Gly--Arg--H, EtO2 C-D-Arg-Gly-Arg-H], half-maximal inhibition on factor Xa (IC50) was put at 49 nM.

On to `NC(N)=NCCC[C@@H](C=O)NC(=O)CNC(=O)[C@H](N)CCCN=C(N)N` [H--D--Arg--Gly--Arg--H, D-Arg-Gly-Arg-H] (H-[dR]-Gly-Arg-aldehyde), for which the IC50 was determined as 64 nM against factor Xa, 830 nM at prothrombinase complex and 41000 nM against thrombin.

Take `N=C(N)NCCC[C@@H](C=O)NC(=O)CNC(=O)[C@@H](CCCNC(=N)N)NC(=O)CCC(=O)O` [HOOC(CH2)2 CO--D--Arg--Gly--Arg--H, Succinoyl-D-Arg-Gly-Arg-H] (Suc-[dR]-Gly-Arg-aldehyde): the IC50 on factor Xa (setting [3]) came out at 224 nM.

At factor Xa, `N=C(N)NCCC[C@@H](C=O)NC(=O)CNC(=O)[C@@H](CCCNC(=N)N)NC(=O)CC(=O)O` [HOOCCH2 CO--D--Arg--Gly--Arg--H, Malonoyl-D-Arg-Gly-Arg-H] displayed an IC50 of 98 nM.

Consider `N=C(N)NCCC[C@@H](C=O)NC(=O)CNC(=O)[C@@H](CCCNC(=N)N)NC(=O)C(=O)O` [HOOCCO--D--Arg--Gly--Arg--H, Oxaloyl-D-Arg-Gly-Arg-H], for which the concentration for half-maximal inhibition (IC50) at prothrombinase complex was found to be 630 nM.

Take `N=C(N)NCCC[C@@H](C=O)NC(=O)CNC(=O)[C@@H](CCCNC(=N)N)NC(=O)CCc1ccccc1` [PhCH2 CH2 CO--D--Arg--Gly--Arg--H, 3-Phenylpropanoyl-D-Arg-Gly-Arg-H] (Hydrocinnamoyl-[dR]-Gly-Arg-aldehyde): the half-inhibitory concentration (IC50) at factor Xa (setting [3]) turned out to be 200 nM; at prothrombinase complex it was 2000 nM; at thrombin (setting [4]) it was 75000 nM.

With `N=C(N)NCCC[C@@H](C=O)NC(=O)CNC(=O)[C@@H](CCCNC(=N)N)NS(=O)(=O)Cc1ccccc1` [PhCH2 SO2 --D--Arg--Gly--Arg--H, Benzylsulfonyl-D-Arg-Gly-Arg-H], the concentration for half-maximal inhibition (IC50) at thrombin is 33000 nM.
